Laboratory results published in article PMC7155212 (Journal of Enzyme Inhibition and Medicinal Chemistry, 2020).
Several values for one entry are separate records, joined by “and”; a condition that tells them apart may be missing. Equal values may be shown once. Read-outs that look alike come from different tables or passages of the source.

Assays:
[1] = In vitro antioxidant activity (DPPH radical scavenging); conditions: DPPH free radical scavenging, 30 min at 37 °C, mean ± SD (n = 3)
Protocol: The assay provides an assessment of the antioxidant activity due to free radical scavenging by measuring hydrogen atom (or one electron) donating activity. DPPH is a purple stable free radical that is reduced to a yellow-coloured diphenylpicryl hydrazine by an antioxidant. The spectrophotometric assay was carried out as described by the literature method with a slight modification. 100 μL of a sample solution was added to 100 μL of DPPH solution. Following 30 min of incubation at 37 °C and protection from light, the absorbance at 517 nm was determined using a microplate reader. Each group was measured three times in parallel to average. IC50 values were calculated. The percentage of DPPH radical scavenging rate of the target compound is calculated as follows: DPPH free radical scavenging effect (%)=[A0 – (A1−A2)]/A0×100% where A0 is the absorbance of blank group; A1 is the absorbance of sample group; A2 is the absorbance of sample blank group.

[2] = target: T1, MAO-B (Rattus norvegicus, UniProt P19643); test: In vitro MAO inhibitory activity (Holt method, crude enzyme from rat liver); format: biochemical, Wistar rat
T1 construct: The crude enzyme was extracted from the liver of 200–250 g of Wistar rats; from tissue; host or cells: liver of Wistar rats (crude enzyme)
T1 sequence (P19643 1-520): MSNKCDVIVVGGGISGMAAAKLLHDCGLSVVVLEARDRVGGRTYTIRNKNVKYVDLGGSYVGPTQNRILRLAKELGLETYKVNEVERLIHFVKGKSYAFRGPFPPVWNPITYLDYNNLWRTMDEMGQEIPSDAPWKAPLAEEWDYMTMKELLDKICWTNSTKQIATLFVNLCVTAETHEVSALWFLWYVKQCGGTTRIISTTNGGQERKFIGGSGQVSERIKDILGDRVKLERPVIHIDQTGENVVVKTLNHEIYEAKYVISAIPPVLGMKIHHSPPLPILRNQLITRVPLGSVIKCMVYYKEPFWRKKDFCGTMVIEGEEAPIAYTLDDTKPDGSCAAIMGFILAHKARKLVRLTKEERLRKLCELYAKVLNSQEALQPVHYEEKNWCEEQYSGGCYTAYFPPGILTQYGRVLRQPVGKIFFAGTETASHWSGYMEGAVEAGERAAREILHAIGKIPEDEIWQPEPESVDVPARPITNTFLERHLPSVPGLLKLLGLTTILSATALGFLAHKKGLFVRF
Protocol: The MAO inhibitory activity of the 3-arylbenzofuranone compounds was determined by the method of Holt et al.[17] with slight modifications. The crude enzyme was extracted from the liver of 200–250 g of Wistar rats according to literature methods[18]^,[19]. The crude enzyme protein content was determined by the Bradford method using a Bradford Protein Assay Kit (Beyotime). The assay was performed in 0.2 M potassium phosphate buffer pH 7.6 on 96-well plates in 240 μl total volume. The chromogenic solution containing 1 mM vanillic acid, 0.5 mM 4-aminoantipyrine, and 4 U/ml horseradish peroxidase in 0.2 M potassium phosphate buffer pH 7.6 was mixed anew for each measurement. 40 μL of enzyme solution and 40 μL of sample solution were added to a 96-well plate. The solution was then incubated at 37 °C for 20 min. 120 μL of the 4-(trifluoromethyl) benzylamine solution and 40 μL of the chromogenic solution were added subsequently and incubated at 37 °C for 90 min. The absorbance was measured at 490 nm using a microplate reader, and the inhibition rate of MAO and the IC50 value of each sample were calculated according to the formula. The control group replaced the sample solution with PBS (0.2 M, pH = 7.6), the positive control replaced the sample with the positive drug, and the blank group replaced the substrate with PBS, and each group was measured three times in parallel to average. Monoamine oxidase inhibitory effect (%) = [(AC – AB) – (AS – ASB )]/(AC – AB)×100% where AC is the absorbance of control group; AB is the absorbance of blank group; AS is the absorbance of sample group; ASB is the absorbance of sample blank group.

[3] = target: BChE from equine serum (Equus caballus, UniProt P81908); test: biochemical; format: biochemical
Protocol: (§1) The anticholinesterase activity of the 3-arylbenzofuranone compounds was determined by the method of Ellman et al.[16] with slight modifications. […] Acetylthiocholine iodide and butyrylthiocholine iodide were used as substrates respectively. 5,5′-Dithiobis(2-nitrobenzoic acid) (DTNB) was used as the chromophoric reagent. To a 96-well plate, 120 µL of phosphate buffer solution (0.1 M, pH = 8.0, PBS), 20 µL of DTNB (3.3 mM in 0.1 M PBS, pH = 8.0) were added sequentially, 20 µL AChE solution (0.2 U/mL in 0.1 M PBS, pH = 8.0), 20 µL of different concentrations of the sample solution, shaken well, and incubated at 37 °C for 5 min. Then, 20 µL of substrate (5 mM in 0.1 M PBS, pH = 8.0) were added, shaken well, and incubated at 37 °C for 20 min. […] BChE inhibitory activity was assessed similarly using butyrylthiocholine iodide as the substrate. The sample solution was set to five concentration gradients and the experiment was repeated three times. […] Cholinesterase inhibitory effect (%)=[A0−(A1−A2)]/A0×100% where A0 is the absorbance of blank group; A1 is the absorbance of sample group; A2 is the absorbance of sample blank group.

[4] = target: AChE from electric eel (Electrophorus electricus, UniProt O42275); test: biochemical; format: biochemical; conditions: Ellman method, mean ± SD (n = 3)
Protocol: as §1

[5] = rat liver crude enzyme, 4-(trifluoromethyl)benzylamine substrate, mean ± SD (n = 3), read-out: IC50 value MAO-B inhibitory activity
[6] = equine serum BChE, Ellman method, mean ± SD (n = 3), read-out: IC50 value BuChE inhibitory activity
[7] = read-out: IC50 value AChE inhibitory activity
[8] = IC50 value AChE inhibitory activity

Sequence of BChE from equine serum (P81908 whole entry): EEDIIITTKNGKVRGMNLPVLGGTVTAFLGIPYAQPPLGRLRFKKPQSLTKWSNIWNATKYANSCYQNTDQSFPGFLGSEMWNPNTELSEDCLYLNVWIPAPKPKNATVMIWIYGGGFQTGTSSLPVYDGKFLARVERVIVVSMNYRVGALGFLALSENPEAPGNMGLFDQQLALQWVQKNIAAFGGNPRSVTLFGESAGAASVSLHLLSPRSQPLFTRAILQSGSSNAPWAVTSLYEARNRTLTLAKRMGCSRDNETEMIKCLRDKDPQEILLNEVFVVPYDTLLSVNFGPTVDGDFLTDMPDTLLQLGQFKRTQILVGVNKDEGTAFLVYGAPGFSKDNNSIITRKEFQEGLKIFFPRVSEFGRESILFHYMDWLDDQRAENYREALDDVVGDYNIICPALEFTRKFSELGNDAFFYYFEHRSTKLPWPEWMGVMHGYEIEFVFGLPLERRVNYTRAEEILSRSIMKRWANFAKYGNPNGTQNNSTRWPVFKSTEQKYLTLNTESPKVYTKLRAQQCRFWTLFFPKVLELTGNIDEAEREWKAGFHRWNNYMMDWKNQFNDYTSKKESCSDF
Sequence of AChE from electric eel (O42275 24-633): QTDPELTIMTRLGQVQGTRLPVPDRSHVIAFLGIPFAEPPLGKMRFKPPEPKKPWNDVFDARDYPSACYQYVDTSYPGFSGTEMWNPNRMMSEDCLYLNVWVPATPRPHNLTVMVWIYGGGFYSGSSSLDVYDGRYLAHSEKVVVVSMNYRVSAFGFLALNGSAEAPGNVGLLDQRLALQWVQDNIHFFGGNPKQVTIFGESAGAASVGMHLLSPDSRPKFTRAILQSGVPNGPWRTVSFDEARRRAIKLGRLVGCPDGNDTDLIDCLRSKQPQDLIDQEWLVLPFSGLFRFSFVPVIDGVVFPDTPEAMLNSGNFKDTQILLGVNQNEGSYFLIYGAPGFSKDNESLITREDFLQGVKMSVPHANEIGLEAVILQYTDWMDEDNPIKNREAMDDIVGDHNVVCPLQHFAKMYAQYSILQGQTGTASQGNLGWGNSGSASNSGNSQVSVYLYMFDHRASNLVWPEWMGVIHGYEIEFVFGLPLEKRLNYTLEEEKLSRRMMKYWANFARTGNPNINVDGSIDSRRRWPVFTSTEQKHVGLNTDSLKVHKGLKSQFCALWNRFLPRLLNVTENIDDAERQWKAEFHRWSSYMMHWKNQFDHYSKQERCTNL

SMILES | IC50 [1] | IC50 [2, 5] | IC50 [3, 6] | IC50 [4, 7] | IC50 [2] | IC50 [3] | IC50 [4, 8]
O=C1O[C@H]([C@@H](O)CO)C(O)=C1O [Ascorbic acid, reference compound] | 7.69 ± 0.1 µM |  |  |  |  |  | 
COc1ccc(C2C(=O)Oc3cc(O)ccc32)cc1 (centres unmarked) [Compound 1, 6-Hydroxyl-3–(4′-methoxyphenyl)-benzofuranone] | 13.3 ± 0.27 µM | 61.3 ± 0.79 µM | > 200 µM | 50.6 ± 3.12 µM |  |  | 
COc1ccc(C2C(=O)Oc3ccc(O)cc32)cc1 (centres unmarked) [Compound 2, 5-Hydroxyl-3–(4′-methoxyphenyl)-benzofuranone] | > 100 µM | 14.7 ± 0.78 µM |  | 4.15 ± 1.02 µM |  |  | 
COc1ccc(C2C(=O)Oc3cc(OC)ccc32)cc1 (centres unmarked) [Compound 3, 6-Methoxy-3–(4′-methoxyphenyl)-benzofuranone] | 11.8 ± 0.18 µM | 298 ± 5.4 µM | > 200 µM | 80.5 ± 3.41 µM |  |  | 
COc1ccc(C2C(=O)Oc3ccc(OC)cc32)cc1 (centres unmarked) [Compound 4, 5-Methoxy-3–(4′-methoxyphenyl)-benzofuranone] | 33.1 ± 1.45 µM | 383 ± 5.08 µM | > 200 µM | < 1 µM and 0.74 µM |  |  | 
COc1ccc(C2C(=O)Oc3c2ccc(O)c3O)cc1 (centres unmarked) [Compound 5, 6,7-Dihydroxy-3–(4′-methoxyphenyl)-benzofuranone] | 5.51 ± 0.2 µM | 22.48 ± 0.22 µM | > 200 µM |  |  |  | 
COc1ccc(C2C(=O)Oc3cc(O)ccc32)cc1OC (centres unmarked) [Compound 6, 6-Hydroxy-3–(3′,4′-dimethoxyphenyl)-benzofuranone] |  | 48.6 ± 2.02 µM | > 200 µM | 24.4 ± 1.21 µM |  |  | 
COc1ccc(C2C(=O)Oc3cc(OC)c(O)cc32)cc1 (centres unmarked) [Compound 7, 5-Hydroxy-6-methoxy-3–(4′-methoxyphenyl)-benzofuranone] | 2.62 ± 0.21 µM | 91.13 ± 0.7 µM | 32.9 ± 0.76 µM | < 1 µM and 0.52 µM |  |  | 
COc1ccc(C2C(=O)Oc3c2ccc(OC)c3O)cc1 (centres unmarked) [Compound 8, 6-Methoxy-7-hydroxy-3–(4′-methoxyphenyl)-benzofuranone] | 5.96 ± 0.14 µM | 40.6 ± 1.92 µM | > 200 µM | 9.24 ± 0.62 µM |  |  | 
COc1ccc2c(c1)OC(=O)C2c1ccc(OC)c(OC)c1 (centres unmarked) [Compound 9, 6-Methoxy-3–(3′,4′-dimethoxyphenyl)-benzofuranone] | 17.2 ± 0.58 µM |  |  |  | 354 ± 5.05 µM | > 200 µM | 0.35 ± 0.03 µM
COc1ccc(C2C(=O)Oc3cc(OC)c(OC)cc32)cc1 (centres unmarked) [Compound 10, 5,6-Dimethoxy-3–(4′-methoxyphenyl)-benzofuranone] | 13.89 ± 0.11 µM | 493 ± 7.1 µM | > 200 µM | 28.7 ± 1.44 µM |  |  | 
COc1cc(C2C(=O)Oc3cc(O)ccc32)cc(OC)c1OC (centres unmarked) [Compound 11, 6-Hydroxy-3–(3′,4′,5′-trimethoxyphenyl)-benzofuranone] | 11.2 ± 0.24 µM | 38.6 ± 0.42 µM | > 200 µM | 48.24 ± 0.34 µM |  |  | 
COc1ccc(C2C(=O)Oc3c2ccc(OC)c3O)cc1OC (centres unmarked) [Compound 12, 6-Methoxy-7-hydroxy-3–(3′,4′-dimethoxyphenyl)-benzofuranone] | 1.6 ± 0.1 µM | 22.9 ± 0.73 µM | 180.9 ± 1.48 µM | 5.25 ± 0.44 µM |  |  | 
COc1cc(C2C(=O)Oc3ccc(O)cc32)cc(OC)c1OC (centres unmarked) [Compound 14, 5-Hydroxy-3–(3′,4′,5′-trimethoxyphenyl)-benzofuranone] | 5.11 ± 0.13 µM | 69.7 ± 1.26 µM | 128 ± 4.65 µM | 3.37 ± 0.17 µM |  |  | 
COc1ccc2c(c1)C(c1cc(OC)c(OC)c(OC)c1)C(=O)O2 (centres unmarked) [Compound 15, 5-Methoxy-3–(3′,4′,5′-trimethoxyphenyl)-benzofuranone] | 32.6 ± 0.42 µM | 215 ± 2.27 µM | > 200 µM | 2.54 ± 0.19 µM |  |  | 
COc1ccc2c(c1)OC(=O)C2c1cc(OC)c(OC)c(OC)c1 (centres unmarked) [Compound 16, 6-Methoxy-3–(3′,4′,5′-trimethoxyphenyl)-benzofuranone] | 18 ± 0.48 µM | > 500 µM | > 200 µM | 4.07 ± 0.19 µM |  |  | 
COc1ccc2c(c1)C(c1ccc(OC)c(OC)c1OC)C(=O)O2 (centres unmarked) [Compound 17, 5-Methoxy-3–(2′,3′,4′-trimethoxyphenyl)-benzofuranone] | 29.2 ± 0.31 µM | 82.7 ± 1.31 µM | > 200 µM | 42.3 ± 4.01 µM |  |  | 
COc1ccc2c(c1)OC(=O)C2c1ccc(OC)c(OC)c1OC (centres unmarked) [Compound 18, 6-Methoxy-3–(2′,3′,4′-trimethoxyphenyl)-benzofuranone] | 64.5 ± 1.29 µM | 180.3 ± 1.32 µM | > 200 µM | 124 ± 2.17 µM |  |  | 
COc1ccc(C2C(=O)Oc3cc(OC)c(OC)cc32)cc1OC (centres unmarked) [Compound 19, 5,6-Dimethoxy-3–(3′,4′-dimethoxyphenyl)-benzofuranone] | 12.6 ± 0.14 µM |  |  |  | 146 ± 1.83 µM | > 200 µM | 36.5 ± 0.51 µM
COc1cc(C2C(=O)Oc3c2ccc(O)c3O)cc(OC)c1OC (centres unmarked) [Compound 20, 6,7-Dihydroxy−3–(3′,4′,5′-trimethoxyphenyl)-benzofuranone] | 42.6 ± 2.58 µM | 149 ± 3.39 µM | > 200 µM | 0.089 ± 0.01 µM |  |  | 
COc1cc2c(cc1O)C(c1cc(OC)c(OC)c(OC)c1)C(=O)O2 (centres unmarked) [Compound 21, 5-Hydroxy-6-methoxy-3–(3′,4′,5′-trimethoxyphenyl)-benzofuranone] | 5.35 ± 0.33 µM | > 500 µM | 146 ± 3.05 µM | 2.38 ± 0.2 µM |  |  | 
COc1ccc2c(c1O)OC(=O)C2c1cc(OC)c(OC)c(OC)c1 (centres unmarked) [Compound 22, 6-Methoxy-7-hydroxy-3–(3′,4′,5′-trimethoxyphenyl)-benzofuranone] | 6.44 ± 0.12 µM | 30.3 ± 0.65 µM | > 200 µM | 2.03 ± 0.09 µM |  |  | 
COc1cc2c(cc1O)C(c1cc(OC)c(OC)c(OC)c1)C(=O)O2 (centres unmarked) [Compound 23, 5-Hydroxy-6-methoxy-3–(3′,4′,5′-trimethoxyphenyl)-benzofuranone] | 11.9 ± 0.16 µM | 43.9 ± 1.26 µM | > 200 µM | 26 ± 1.26 µM |  |  | 
